In publication PMC9069370, “Integrated Design of a Membrane‐Lytic Peptide‐Based Intravenous Nanotherapeutic Suppresses Triple‐Negative Breast Cancer” (Advanced Science, 2022):
Read-outs that look alike come from different tables or passages of the source. Square brackets hold non-standard residues; d marks the D form. Peptide text beside a SMILES is read from it.

Columns and labels:
[1] = system: HMLER‐shEcad tumorspheres; experiment: cells; format: cell-based, human
MCF‐10A = experiment: cells; format: cell-based, human
Description: (§1) […], and MCF-10A cells were maintained in MEGM with supplements and growth factors bovine pituitary extract, hydrocortisone, human epidermal growth factor, insulin, and gentamicin/amphotericin-B.

HMLER = experiment: cells; format: cell-based, human
Description: as §1

HMLER‐shEcad = experiment: cells; format: cell-based, human
Description: as §1

MCF‐10A mammospheres = experiment: Mammosphere viability assay (TOX8); format: cell-based, human; details: for D‐enantiomer average IC90 against MCF‐10A mammospheres: one average for d‐DHK and d‐EEK together
HEK293T = experiment: cells; format: cell-based, human
U2OS = format: cell-based, human
[2] = Tryptophan fluorescent binding assay; details: tryptophan fluorescence; 50 µM peptide, lipid titrated 0-5000 µM; phosphate buffered saline 1X, pH 7.4; values as lipid per peptide
Summary of the method: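 Tryptophan fluorescence was used to follow binding of peptide, fixed at 50 µM, to large unilamellar vesicles of POPC:POPG (3:1 ratio) titrated into phosphate buffered saline (1X, pH 7.4). After 1 h incubation, spectra were taken on a BioTek Cytation 5 reader with excitation at 280 nm and emission at 300 to 450 nm (9 nm slits), averaging three scans.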

[3] = ANTS/DPX liposome leakage assay; details: for Peptide Concentration-induced 50 % ANTS/DPX leakage at pH 4.8 (L/P), 3POPC/1POPG Vesicle / Peptide Concentration-induced 50 % ANTS/DPX leakage at pH 4.8 (L/P), POPC Vesicle / Peptide Concentration-induced 50 % ANTS/DPX leakage at pH 7.4 (L/P), 3POPC/1POPG Vesicle / Peptide Concentration-induced 50 % ANTS/DPX leakage at pH 7.4 (L/P), POPC Vesicle: 0.5 mM vesicles, peptide 0-20 µM, 3 h incubation, lipid per peptide; for Peptide Concentration-induced 50 % ANTS/DPX leakage at pH 4.8 (L/P), 3POPC/1POPG Vesicle / Peptide Concentration-induced 50 % ANTS/DPX leakage at pH 4.8 (L/P), POPC Vesicle: HCl-adjusted PBS 1X pH 4.8; for Peptide Concentration-induced 50 % ANTS/DPX leakage at pH 7.4 (L/P), 3POPC/1POPG Vesicle / Peptide Concentration-induced 50 % ANTS/DPX leakage at pH 7.4 (L/P), POPC Vesicle: PBS 1X pH 7.4, high ratio = more potent
Summary of the method: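 Extruded 0.1 µm POPC or POPC/POPG (3:1) vesicles were loaded with 5 mM ANTS and 12.5 mM DPX, gel-filtered, then used at 0.5 mM lipid with titrated peptide at pH 7.4 or pH 4.8 (acidified PBS). Leakage was read at ex 350/em 510 nm after 3 h against 10% Triton maximum, expressed as lipid/peptide ratio for 50% leakage.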

human red blood cells = experiment: Haemolysis (human red blood cells); format: cell-based; details: PBS, 37 °C, 1 h, one value for DHK, d‐DHK and d‐EEK together
Experimental: Fresh human red blood cells were obtained from Interstate Blood Bank, Inc., and thoroughly washed in PBS until the supernatant was clear. The peptide was serially diluted in PBS starting at a concentration of 200 µM. […] As a positive lysis control, 1% triton was used. […] After centrifugation, 10 µL of supernatant was transferred to 90 µL of ddH2O in a fresh 96‐well plate.

[4] = non-cancerous cells, 2D culture, MTT, 72 h incubation, library peptides n = 2, D-enantiomers and small molecules replicated six times, read-out: IC50 (µM) MCF-10A
[5] = 2D culture, MTT, 72 h incubation, library peptides average of two independent experiments (n = 2), D-enantiomers and small molecules replicated six times, read-out: IC50 (µM) HMLER
[6] = 2D culture, MTT, 72 h incubation, library peptides average of two independent experiments (n = 2), D-enantiomers and small molecules replicated six times, read-out: IC50 (µM) HMLER-shEcad
[7] = 2D culture, MTT, 72 h incubation, library peptides n = 2, D-enantiomers and small molecules replicated six times, read-out: IC50 (µM) U2OS
[8] = non-cancerous cells, 2D culture, MTT, 72 h incubation, library peptides n = 2, D-enantiomers and small molecules replicated six times, read-out: IC50 (µM) HEK293T

SMILES | IC50 (HMLER‐shEcad; 72 h) [µM] | IC50 (U2OS; 72 h) [µM] | IC50 (HEK293T; 72 h) [µM] | Lipid Concentration-induced 50% Peptide Binding (L/P), 3POPC/1POPG Vesicle [2] [L/P] | Lipid Concentration-induced 50% Peptide Binding (L/P), POPC Vesicle [2] [L/P] | Peptide Concentration-induced 50 % ANTS/DPX leakage at pH 4.8 (L/P), 3POPC/1POPG Vesicle [3] [L/P] | Peptide Concentration-induced 50 % ANTS/DPX leakage at pH 4.8 (L/P), POPC Vesicle [3] [L/P] | Peptide Concentration-induced 50 % ANTS/DPX leakage at pH 7.4 (L/P), 3POPC/1POPG Vesicle [3] [L/P] | Peptide Concentration-induced 50 % ANTS/DPX leakage at pH 7.4 (L/P), POPC Vesicle [3] [L/P] | HC50 (human red blood cells) [µM] | IC50 (MCF‐10A; [4]) [µM] | IC50 (HMLER; [5]) [µM] | IC50 (HMLER‐shEcad; [6]) [µM] | D‐enantiomer average IC90 against MCF‐10A mammospheres (MCF‐10A mammospheres) [µM] | IC50 (U2OS; [7]) [µM] | IC50 (HEK293T; [8]) [µM] | other results
CC[C@@H](C(=O)[C@@H](C)[C@@H](O)[C@H](C)[C@@H]1O[C@@H]([C@@H](CC)C(=O)O)CC[C@@H]1C)[C@H]1O[C@]2(C=C[C@@H](O)[C@]3(CC[C@@](C)([C@H]4CC[C@](O)(CC)[C@H](C)O4)O3)O2)[C@H](C)C[C@@H]1C [Salinomycin, salinomycin, reference compound] | – | – | – | – | – | – | – | – | – | – | – | – | – | – | – | – | IC50 ([1]; Homo sapiens, 120 h, read-out: IC50 against HMLER‐shEcad tumorspheres): 22 ± 5 µM; IC90 ([1]; Homo sapiens, read-out: IC90 against HMLER‐shEcad tumorspheres): 44 ± 17 µM; IC50 (MCF‐10A; Homo sapiens, MCF-10A, 72 h, read-out: IC50 (µM) MCF-10A, non-cancerous cells, 2D culture, MTT, 72 h incubation, library peptides n = 2, D-enantiomers and small molecules replicated six times): 9.76 ± 2.28 µM; IC50 (MCF‐10A; Homo sapiens, MCF-10A, read-out: IC50 of salinomycin co‐administered with DHK, MCF‐10A, with […] DHK): 1.7 µM; IC50 (MCF‐10A; read-out: IC50 (µM) MCF-10A, non-cancerous cells, 2D culture, MTT, 72 h incubation, library peptides n = 2, D-enantiomers and small molecules replicated six times): 9.7 ± 2.3 µM; IC50 (HMLER; Homo sapiens, 72 h, read-out: IC50 (µM) HMLER, 2D culture, MTT, 72 h incubation, library peptides average of two independent experiments (n = 2), D-enantiomers and small molecules replicated six times): 0.37 ± 0.08 µM; IC50 (HMLER; Homo sapiens, read-out: IC50 of salinomycin co‐administered with DHK, HMLER, with […] DHK): 0.05 µM; increase in anticancer efficiency (HMLER; addition of 5 µM DHK): 100 fold; IC50 (HMLER; read-out: IC50 (µM) HMLER, 2D culture, MTT, 72 h incubation, library peptides average of two independent experiments (n = 2), D-enantiomers and small molecules replicated six times): 0.4 ± 0.1 µM; cancer cell viability (HMLER; with 5 µM DHK, at the lowest dose of salinomycin): < 1%; factor by which the dosage of salinomycin required to kill cells is reduced (HMLER; with […] DHK, both HMLER and HMLER‐shEcad): 8–27; IC50 (HMLER‐shEcad; Homo sapiens, 72 h, read-out: IC50 (µM) HMLER-shEcad, 2D culture, MTT, 72 h incubation, library peptides average of two independent experiments (n = 2), D-enantiomers and small molecules replicated six times): 0.92 ± 0.28 µM; IC50 (HMLER‐shEcad; Homo sapiens, read-out: IC50 of salinomycin co‐administered with DHK, HMLER‐shEcad, with […] DHK): 0.03 µM; IC50 (HMLER‐shEcad; read-out: IC50 (µM) HMLER-shEcad, 2D culture, MTT, 72 h incubation, library peptides average of two independent experiments (n = 2), D-enantiomers and small molecules replicated six times): 0.9 ± 0.3 µM; IC90 against MCF‐10A mammospheres (MCF‐10A mammospheres): 34 ± 20 µM; IC50 (HEK293T; Homo sapiens, HEK-293T, 72 h, read-out: IC50 (µM) HEK293T, non-cancerous cells, 2D culture, MTT, 72 h incubation, library peptides n = 2, D-enantiomers and small molecules replicated six times): 0.41 ± 0.1 µM; IC50 (HEK293T; Homo sapiens, HEK-293T, read-out: IC50 of salinomycin co‐administered with DHK, HEK293T, with […] DHK): 0.1 µM; IC50 (HEK293T; read-out: IC50 (µM) HEK293T, non-cancerous cells, 2D culture, MTT, 72 h incubation, library peptides n = 2, D-enantiomers and small molecules replicated six times): 0.4 ± 0.1 µM
CC(C)C[C@H](NC(=O)CN)C(=O)N[C@@H](CC(C)C)C(=O)N[C@@H](CC(=O)O)C(=O)N[C@@H](CC(C)C)C(=O)N[C@@H](CC(C)C)C(=O)N[C@@H](CCC(=O)O)C(=O)N[C@@H](CC(C)C)C(=O)N[C@@H](CC(C)C)C(=O)N[C@@H](CC(C)C)C(=O)N[C@@H](CCCCN)C(=O)N[C@@H](C)C(=O)N[C@@H](C)C(=O)NCC(=O)N[C@@H](Cc1c[nH]c2ccccc12)C(N)=O [DEK] (H-GLLDLLELLLKAAGW-NH2) | 0.7 ± 0.07 | 19.9 ± 2.65 | 6.8 ± 0.85 | 1.67 | 1.50 | 469 | 10 | 773 | 747 | – | – | – | – | – | – | – | IC50 ([1]; 16 h): 12 ± 2 µM; IC90 ([1]; 16 h): 22 ± 2 µM; change of ANTS/DPX dye leakage / liposome selectivity at pH 4.8 ([3]; pH = 4.8 compared with physiological pH, anionic versus neutral liposomes): significantly increased dye leakage from anionic liposomes
CC(C)C[C@@H](NC(=O)CN)C(=O)N[C@H](CC(C)C)C(=O)N[C@H](CCC(=O)O)C(=O)N[C@H](CC(C)C)C(=O)N[C@H](CC(C)C)C(=O)N[C@H](CCC(=O)O)C(=O)N[C@H](CC(C)C)C(=O)N[C@H](CC(C)C)C(=O)N[C@H](CC(C)C)C(=O)N[C@H](CCCCN)C(=O)N[C@H](C)C(=O)N[C@H](C)C(=O)NCC(=O)N[C@H](Cc1c[nH]c2ccccc12)C(N)=O [d-EEK] (H-G[dL][dL][dE][dL][dL][dE][dL][dL][dL][dK][dA][dA]G[dW]-NH2) | – | – | – | – | – | – | – | – | – | 14 ± 5 | 1.07 ± 0.1 | 0.29 ± 0.01 | 0.29 ± 0.01 | 8 ± 5 | 4.78 ± 0.02 | 2.82 ± 0.07 | IC50 (HMLER‐shEcad; 2D culture, read-out: IC50, HMLER-shEcad cell viability, compound alone): 0.3 ± 0.1 µM; IC50 (HMLER‐shEcad; read-out: IC50, HMLER-shEcad cell viability, together with 5 µM caspase inhibitor z-VAD-FMK, 2D culture, co-incubation with 5 µM z-VAD-FMK): 0.3 ± 0.1 µM
CC(C)C[C@@H](NC(=O)CN)C(=O)N[C@H](CC(C)C)C(=O)N[C@H](CC(=O)O)C(=O)N[C@H](CC(C)C)C(=O)N[C@H](CC(C)C)C(=O)N[C@H](Cc1c[nH]cn1)C(=O)N[C@H](CC(C)C)C(=O)N[C@H](CC(C)C)C(=O)N[C@H](CC(C)C)C(=O)N[C@H](CCCCN)C(=O)N[C@H](C)C(=O)N[C@H](C)C(=O)NCC(=O)N[C@H](Cc1c[nH]c2ccccc12)C(N)=O [d-DHK] (H-G[dL][dL][dD][dL][dL][dH][dL][dL][dL][dK][dA][dA]G[dW]-NH2) | – | – | – | – | – | – | – | – | – | 14 ± 5 | 0.55 ± 0.06 | 0.32 ± 0.07 | 0.23 ± 0.04 | 8 ± 5 | 1.24 ± 0.03 | 1.55 ± 0.37 | IC50 (HMLER‐shEcad; one value printed for each pair of peptides, cell line not given, read-out: IC50 (anticancer activity)): 0.3 ± 0.1 µM
CC(C)C[C@H](NC(=O)CN)C(=O)N[C@@H](CC(C)C)C(=O)N[C@@H](Cc1c[nH]cn1)C(=O)N[C@@H](CC(C)C)C(=O)N[C@@H](CC(C)C)C(=O)N[C@@H](CCC(=O)O)C(=O)N[C@@H](CC(C)C)C(=O)N[C@@H](CC(C)C)C(=O)N[C@@H](CC(C)C)C(=O)N[C@@H](CCC(=O)O)C(=O)N[C@@H](C)C(=O)N[C@@H](C)C(=O)NCC(=O)N[C@@H](Cc1c[nH]c2ccccc12)C(N)=O [HEE] (H-GLLHLLELLLEAAGW-NH2) | 4.95 ± 0.49 | 47.5 ± 11 | 10.2 ± 0.2 | 0.50 | 0.58 | 122 | 100 | 792 | 876 | – | – | – | – | – | – | – | IC50 (MCF‐10A; 72 h): 58 ± 41 µM; IC50 (HMLER; 72 h): 6.5 ± 0.71 µM
